Experimental data from patent publication US20180303853A1, “COMPOSITIONS AND METHODS FOR TREATING BACTERIAL INFECTIONS USING CEFTAROLINE” (priority 2017, published 2018).

Experiments:
[1] = Excretion after single IV dose of radiolabeled ceftaroline fosamil in healthy male adults; type: in vivo, human; conditions: in vivo
Procedure: Following administration of a single 600 mg IV dose of radiolabeled ceftaroline fosamil to healthy male adults, approximately 87% of radioactivity was recovered in urine and 6% in feces. The majority of the radioactivity (˜90%) was recovered within 48 hours. Of the radioactivity recovered in urine, approximately 64% was excreted as ceftaroline and approximately 2% as ceftaroline-M-1.

MDRSP [2] = assay: Example 5 CAP study, outcome by baseline pathogen; type: in vivo, S. pneumoniae
Description: (§1) Per-pathogen clinical cure rate and favorable microbiological outcome rate at TOC in the mMITTE and ME Populations;

[3] = Example 4 CAP study, safety
Procedure: (§2) Study-Drug: Ceftaroline fosamil was administered in two consecutive 300 mg intravenous (IV) infusions over 30 minutes, every 12 hours (q12h). The 600-mg dose of ceftaroline fosamil infused over 60 minutes was split into two infusions in order to maintain the blind. For subjects with moderate renal impairment (30 ml/min<CrCl≤50 ml/min), as estimated by the Cockroft-Gault formula, unblinded pharmacy staff or unblinded study staff could adjust the dose of ceftaroline fosamil to two consecutive 200 mg infusions and readjust dose to two 300 mg infusions when renal function improved (CrCl>50 mL/min). The duration of treatment was between 5 to 7 days.
(§3) All subjects who received any amount of study drug were included in the safety analysis. Safety measures included monitoring for adverse events (AE) up to TOC and serious adverse events (SAE) through LFU; recording vital signs, physical examination, electrocardiogram (ECG), and clinical laboratory findings (clinical chemistry, hematology, and urinalysis), at prespecified times throughout the study.

[4] = Example 5 CAP study, safety
Procedure: (§4) Study drug: Ceftaroline fosamil was administered in two consecutive 300 mg intravenous (IV) infusions over 30 minutes, every 12 hours (q12h). The 600-mg dose of ceftaroline fosamil infused over 60 minutes was split into two infusions in order to maintain the blind. For subjects with moderate renal impairment (30 mL/min<CrCl≤50 mL/min), as estimated by the Cockroft-Gault formula, unblinded pharmacy staff or unblinded study staff could adjust the dose of ceftaroline fosamil to two consecutive 200 mg infusions and readjust dose to two 300 mg infusions when renal function improved (CrCl>50 mL/min). The duration of treatment was between 5 to 7 days.
(§5) All subjects initially received two doses (500 mg every 12 hours) of oral adjunctive therapy with clarithromycin following randomization.
(§6) All subjects who received any amount of study drug were included in the safety analysis. Safety measures included monitoring for adverse events (AE) up to TOC and serious adverse events (SAE) through LFU; recording vital signs, physical examination, electrocardiogram (ECG), and clinical laboratory findings (clinical chemistry, hematology, and urinalysis); at prespecified times throughout the study.

[5] = system: CYP1A1, CYP1A2, CYP2A6, CYP2B6, CYP2C8, CYP2C9, CYP2C19, CYP2D6, CYP2E1 and CYP3A4; assay: Cytochrome P450 inhibition in human liver microsomes; type: in vitro ADME; conditions: microsomes
[6] = system: complicated skin and skin structure infections (cSSSI); assay: Two Phase 3 studies in cSSSI, clinical cure at TOC; type: in vivo, human; conditions: co-primary CE and MITT populations
Procedure: A total of 1396 adults with clinically documented complicated skin and skin structure infections (cSSSI) were enrolled in two randomized, multi-center, multinational, double-blind, studies comparing 600 mg ceftaroline fosamil administered intravenously over 1 hour every 12 hours to vancomycin plus aztreonam [1 g vancomycin administered intravenously over 1 hour followed by 1 g aztreonam administered intravenously over 1 hour every 12 hours]. Patients with cSSSI (deep/extensive cellulitis, a major abscess, a wound infection [surgical or traumatic], infected insect bites, burns or ulcers, lower extremity infection in patients with diabetes mellitus or peripheral vascular disease), were enrolled in the studies. Treatment duration was […] days. A switch to oral therapy was not allowed. The Modified Intent-to-Treat (MITT) population included all patients who received any amount of study drug according to their randomized treatment group.
The primary efficacy endpoint was clinical response at the Test of Cure (TOC) visit in the co-primary CE and MITT populations (Table 2). […] In a subgroup analysis (CE population), the comparative clinical cure rates between the ceftaroline group and the vancomycin plus aztreonam group were not affected by age, gender, race, ethnicity, or weight.

S. pneumoniae [7] = assay: Example 5 CAP study, outcome by baseline pathogen; type: in vivo
Description: as §1

H. influenzae [8] = assay: Example 5 CAP study, outcome by baseline pathogen; type: in vivo
Description: as §1

S. aureus [9] = assay: Example 5 CAP study, outcome by baseline pathogen; type: in vivo
Description: as §1

E. coli = assay: Example 5 CAP study, outcome by baseline pathogen; type: in vivo
Description: as §1

H. parainfluenzae [10] = assay: Example 5 CAP study, outcome by baseline pathogen; type: in vivo
Description: as §1

[11] = human, in vivo
Procedure: as §2, §3

[12] = human, in vivo; remark: listed apart in the source
[13] = human, microsomes
[14] = human, in vivo; remark: listed apart in the source
[15] = human, in vivo; remark: listed apart in the source
Procedure: as §4, §5, §6

S. pneumoniae [16] = assay: Example 4 CAP study, outcome by baseline pathogen; type: in vivo
Description: as §1

K. pneumoniae = assay: Example 4 CAP study, outcome by baseline pathogen; type: in vivo
Description: as §1

H. influenzae [17] = assay: Example 4 CAP study, outcome by baseline pathogen; type: in vivo
Description: as §1

S. aureus [18] = assay: Example 4 CAP study, outcome by baseline pathogen; type: in vivo
Description: as §1

H. parainfluenzae [19] = assay: Example 4 CAP study, outcome by baseline pathogen; type: in vivo
Description: as §1

[20] = human, in vivo; remark: listed apart in the source
Procedure: The pharmacokinetics of ceftaroline were evaluated in adolescent patients (ages 12 to 17) with normal renal function.
No dose adjustment is required based on gender.

MDRSP [21] = assay: Example 4 CAP study, outcome by baseline pathogen; type: in vivo, S. pneumoniae
Description: as §1

With `CCO/N=C(\C(=O)N[C@@H]1C(=O)N2C(C(=O)[O-])=C(Sc3nc(-c4cc[n+](C)cc4)cs3)CS[C@H]12)c1nsc(N)n1` [Ceftaroline, ceftaroline] the route of elimination [1] was “primarily eliminated by the kidneys”, the “Favorable Microbiological Outcome at TOC by Baseline Pathogen” value (from here on “Favorable Microbiological Outcome at TOC”) (MDRSP [2]; Example 5, ME) was 2/2 (100.0) and the “Clinical Cure Rate at the TOC Visit by Baseline Pathogen” value (“Clinical Cure Rate at the TOC Visit” for short) (MDRSP [2]; Example 5, ME Population) was 2/2 (100.0). For the same compound, the hemolytic anemia [3] was “No evidence of hemolytic anemia”, the incidence of deaths [3] was 2.9% and the hemolytic anemia [4] was “No evidence of hemolytic anemia”. The percentage of deaths [4] was 1.7%, the “inhibition of major cytochrome P450 isoenzymes” value [5] was “neither ceftaroline fosamil nor ceftaroline inhibits” and the “clinical response at TOC, comparison with comparator” value [6] was “non-inferior to vancomycin plus aztreonam”. For the same compound, the “Favorable Microbiological Outcome at TOC” value (S. pneumoniae [7]; Example 5, ME) was 21/24 (87.5), the “Clinical Cure Rate at the TOC Visit” value (S. pneumoniae [7]; Example 5, ME Population) was 21/24 (87.5) and the “Favorable Microbiological Outcome at TOC” value (H. influenzae [8]; Example 5, ME) was 2/3 (66.7). For the same compound, the “Clinical Cure Rate at the TOC Visit” value (H. influenzae [8]; Example 5, ME Population) was 2/3 (66.7), the “Favorable Microbiological Outcome at TOC” value (S. aureus [9]; Example 5, ME) was 8/10 (80.0) and the “Clinical Cure Rate at the TOC Visit” value (S. aureus [9]; Example 5, ME Population) was 8/10 (80.0). The “Favorable Microbiological Outcome at TOC” value (E. coli; Example 5, ME) was 8/8 (100.0), the “Clinical Cure Rate at the TOC Visit” value (E. coli; Example 5, ME Population) was 8/8 (100.0) and the “Favorable Microbiological Outcome at TOC” value (H. parainfluenzae [10]; Example 5, ME) was 7/7 (100.0). The “Clinical Cure Rate at the TOC Visit” value (H. parainfluenzae [10]; Example 5, ME Population) was 7/7 (100.0), the “Adverse event: COPD” value [11] was 8 (2.5) % and the “Adverse event: Diarrhea” value [11] was 12 (3.8) %. For the same compound, the “Adverse event: Head ache” value [11] was 11 (3.5) %, the “Adverse event: Pleural effusion” value [11] was 4 (1.3) % and the “Adverse event: Pneumonia” value [11] was 8 (2.5) %. For the same compound, the “study-drug-related TEAE: alanine aminotransferase increased” value [11] was 0.3%, the “study-drug-related TEAE: blood creatinine phosphokinase increased” value [11] was 1.3% and the “study-drug-related TEAE: heartache” value [11] was 0.6%. For the same compound, the “subjects with any study-drug-related TEAEs” value [11] was 12.4%, the CL/Fm [12] was 9.60 (1.40) L/h and the “dose dependence of Cmax and AUC” value [12] was “increased approximately in proportion to increases in dose”. The t1/2 [12] was 2.66 (0.40) h, the metabolic turnover [13] was < 12% and the “change in exposure (Cmax and AUC) with concomitant CYP450 inhibitors, inducers, substrates” value [14] was “did nor identify any clinically relevant increases”. For the same compound, the “Adverse event: Constipation” value [15] was 7 (2.3) %, the “TEAEs assessed as drug related by the Investigators” value [15] was 17.1% and the “study-drug-related TEAE: headache” value [15] was 1.0%. The “study-drug-related TEAE: hepatic enzyme increased” value [15] was 0.3%, the “study-drug-related TEAE: sinus bradychardia” value [15] was 1.0% and the “Favorable Microbiological Outcome at TOC” value (S. pneumoniae [16]; Example 4, ME) was 35/39 (89.7). The “Clinical Cure Rate at the TOC Visit” value (S. pneumoniae [16]; Example 4, ME Population) was 33/39 (84.6), the “Favorable Microbiological Outcome at TOC” value (K. pneumoniae; Example 4, ME) was 6/6 (100.0) and the “Clinical Cure Rate at the TOC Visit” value (K. pneumoniae; Example 4, ME Population) was 6/6 (100.0). For the same compound, the “Favorable Microbiological Outcome at TOC” value (H. influenzae [17]; Example 4, ME) was 13/15 (86.7), the “Clinical Cure Rate at the TOC Visit” value (H. influenzae [17]; Example 4, ME Population) was 13/15 (86.7) and the “Favorable Microbiological Outcome at TOC” value (S. aureus [18]; Example 4, ME) was 11/15 (73.3). For the same compound, the “Clinical Cure Rate at the TOC Visit” value (S. aureus [18]; Example 4, ME Population) was 10/15 (66.7), the “Favorable Microbiological Outcome at TOC” value (H. parainfluenzae [19]; Example 4, ME) was 9/9 (100.0) and the “Clinical Cure Rate at the TOC Visit” value (H. parainfluenzae [19]; Example 4, ME Population) was 9/9 (100.0). For the same compound, the “AUC higher in female vs male subjects (trend)” value ([20]; both) was 6-15%, the “Cmax higher in female vs male subjects (trend)” value ([20]; both) was 17-22% and the “mean recovery in the dialysate, share of the administered dose” value ([20]; 4 h) was 21.6%. For the same compound, the “mean AUC higher than in healthy young adults (18-45 years)” value ([20]; iv, 600 mg) was ~33%, the “Favorable Microbiological Outcome at TOC” value (MDRSP [21]; Example 4, ME) was 2/2 (100.0) and the “Clinical Cure Rate at the TOC Visit” value (MDRSP [21]; Example 4, ME Population) was 2/2 (100.0).
